Where a name gives a salt, the structure may show the parent alone. Read-outs that look alike come from different tables or passages of the source.
Columns and labels:
Format in all cases: cell-based
Salmonella typhosa = assay: Agar dilution MIC vs Salmonella typhosa (trypticase soy agar); details: for Minimum inhibitory concentration, St: Salmonella typhosa, first screened at 500 ppm; for MIC: Salmonella enterica, TYPHOSA, read-out: Minimum inhibitory concentration, St, Salmonella typhosa, first screened at 500 ppm
Description: (§1) A tube containing 30 ml of trypticase soy agar was melted and warmed to 45° C. The test compound was added to the tube at a concentration of 0.05% (500 ppm). The mixture was stirred and poured into plates to harden. When hardened, the plates were inoculated with various aerobic and anaerobic organisms. The aerobic plates were incubated at 37° C. for 24 hours and then read for bacterial growth. The same plates were again incubated at 30° C. for an additional 48 hours at which point they were checked for yeast and fungal growth. The anaerobic plates were incubated at 37° C. in an anaerobic chamber and read at 48 hours.
(§2) After the initial readings, compounds showing sufficient activity were re-tested at various concentrations to determine the minimum inhibitory concentration (MIC) of the compounds of the invention against various bacteria and fungi.

Escherichia coli = assay: Agar dilution MIC vs Escherichia coli (trypticase soy agar); details: first screened at 500 ppm; for MIC: read-out: Minimum inhibitory concentration, Ec
Description: as §1, §2

Proteus mirabilis = assay: Agar dilution MIC vs Proteus mirabilis (trypticase soy agar); details: first screened at 500 ppm; for MIC: read-out: Minimum inhibitory concentration, Pm
Description: as §1, §2

Bacillus subtilis = assay: Agar dilution MIC vs Bacillus subtilis (trypticase soy agar); details: first screened at 500 ppm; for MIC: read-out: Minimum inhibitory concentration, Bs
Description: as §1, §2

[1] = test system: Trichophyton mentagrophytes; assay: Agar dilution MIC vs Trichophyton mentagrophytes (trypticase soy agar); details: first screened at 500 ppm
Description: as §1, §2

[2] = test system: Streptococcus mutans (ATCC 10449); assay: MIC and MBC vs Streptococcus mutans, Todd Hewitt broth, standard dilution; details: for MBC: read-out: MBC (minimum bactericidal concentration)
Description: In another procedure, the minimum inhibitory concentration (MIC) and minimum bactericidal concentration (MBC) were determined in ppm for various compounds of the invention against the bacteria, Streptococcus mutans (ATCC 10449). The testing was performed using Todd Hewitt broth and standard dilution techniques.

Streptococcus mutans [3] = assay: Acid inhibition in Streptococcus mutans (Trypticase-yeast medium with sucrose, NaOH titration); details: S. mutans, 48 hours at 37° C.; for minimal effective concentration: Streptococcus mutans, 48 h, read-out: Acid Inhibition (minimum concentration which prevented acid formation)
Description: In still another operation, the acid inhibiting property of these compounds was tested against the known acid producing organism, Streptococcus mutans. Test tubes containing Trypticase-yeast medium with sucrose were inoculated with S. mutans and incubated for 48 hours at 37° C. The tubes were then titrated with 0.1 N sodium hydroxide.

Staphylococcus aureus = assay: Agar dilution MIC vs Staphylococcus aureus (trypticase soy agar); details: first screened at 500 ppm; for MIC: read-out: Minimum inhibitory concentration, Sa
Description: as §1, §2

Streptococcus mutans [4] = assay: Agar dilution MIC vs Streptococcus mutans (trypticase soy agar); details: first screened at 500 ppm; for MIC: read-out: Minimum inhibitory concentration, Sm
Description: as §1, §2

Aspergillus niger = assay: Agar dilution MIC vs Aspergillus niger (trypticase soy agar); details: first screened at 500 ppm
Description: as §1, §2

Aspergillus fumigatus = assay: Agar dilution MIC vs Aspergillus fumigatus (trypticase soy agar); details: first screened at 500 ppm
Description: as §1, §2

Candida pelliculosa = assay: Agar dilution MIC vs Candida pelliculosa (trypticase soy agar); details: first screened at 500 ppm
Description: as §1, §2

[5] = Streptococcus mutans ATCC 10449, Todd Hewitt broth, hemihydrate
[6] = Streptococcus mutans ATCC 10449, Todd Hewitt broth
[7] = Streptococcus mutans, ATCC10449, Streptococcus mutans ATCC 10449, Todd Hewitt broth
[8] = Streptococcus mutans ATCC 10449, Todd Hewitt broth, dihydrate
[9] = Streptococcus mutans, ATCC10449, Streptococcus mutans ATCC 10449, Todd Hewitt broth, read-out: MIC
[10] = Streptococcus mutans ATCC 10449, Todd Hewitt broth, monohydrate

CC(=O)c1ccc2c(c1)[I+]c1cc(C(C)=O)ccc1O2 [1(c), 3,7-diacetylphenoxiodinin-5-ium bisulfite hemihydrate]
Minimum inhibitory concentration, St (Salmonella typhosa; hemihydrate): 5 PPM
Minimum inhibitory concentration, Ec (Escherichia coli; hemihydrate): 10 PPM
Minimum inhibitory concentration, Pm (Proteus mirabilis; hemihydrate): 50 PPM
Minimum inhibitory concentration, Bs (Bacillus subtilis; hemihydrate): 1.0 PPM
Minimum inhibitory concentration, Tm ([1]; hemihydrate): 100 PPM
MBC (minimum bactericidal concentration) [2, 5]: 8.0 ppm
MIC [2, 5]: 1.0 ppm
Acid Inhibition (minimum concentration which prevented acid formation) (Streptococcus mutans [3]; hemihydrate): 0.5 ppm

COC(=O)c1ccc2c(c1)[I+]c1cc(C(=O)O)ccc1O2 [3(c)]
Minimum inhibitory concentration, Sa (Staphylococcus aureus): 1.0 PPM
Minimum inhibitory concentration, St (Salmonella typhosa): 5 PPM
Minimum inhibitory concentration, Ec (Escherichia coli): 5 PPM
Minimum inhibitory concentration, Pm (Proteus mirabilis): 5 PPM
Minimum inhibitory concentration, Bs (Bacillus subtilis): 0.5 PPM
Minimum inhibitory concentration, Sm (Streptococcus mutans [4]): 500 PPM
Minimum inhibitory concentration, An (Aspergillus niger): 500 PPM
Minimum inhibitory concentration, Af (Aspergillus fumigatus): 100 PPM
Minimum inhibitory concentration, Tm [1]: 100 PPM
Minimum inhibitory concentration, Cp (Candida pelliculosa): 500 PPM
MBC (minimum bactericidal concentration) [2, 6]: 2.0 ppm
MIC [2, 6]: 1.0 ppm
Acid Inhibition (minimum concentration which prevented acid formation) (Streptococcus mutans [3]): 1.0 ppm

O=C(c1ccc2c(c1)[I+]c1cc(C(=O)C34CC5CC(CC(C5)C3)C4)ccc1O2)C12CC3CC(CC(C3)C1)C2 (single isomer, unassigned) [5(a)]
Minimum inhibitory concentration, Sa (Staphylococcus aureus): 12.5 PPM
Minimum inhibitory concentration, Sm (Streptococcus mutans [4]): 3.12 PPM
MIC [2, 6]: 3.12 ppm
MBC [2, 7]: 3.12 µg/mL

CC(=O)c1ccc2c(c1)[I+]c1cc(C(C)=O)ccc1O2 [1(a), 3,7-Diacetylphenoxiodinin-5-ium chloride dihydrate]
MIC (Staphylococcus aureus): 5 µg/mL
MIC (Salmonella typhosa): 10 µg/mL
Minimum inhibitory concentration, Ec (Escherichia coli; dihydrate): 50 PPM
Minimum inhibitory concentration, Pm (Proteus mirabilis; dihydrate): 100 PPM
Minimum inhibitory concentration, Bs (Bacillus subtilis; dihydrate): 5 PPM
MIC (Aspergillus fumigatus; read-out: Minimum inhibitory concentration, Af): 500 µg/mL
Minimum inhibitory concentration, Tm ([1]; dihydrate): 500 PPM
MBC (minimum bactericidal concentration) [2, 8]: 0.98 ppm
MIC [2, 8]: 0.49 ppm
Acid Inhibition (minimum concentration which prevented acid formation) (Streptococcus mutans [3]; dihydrate): 0.12 ppm

CN(C)S(=O)(=O)c1ccc2c(c1)[I+]c1cc(S(=O)(=O)N(C)C)ccc1O2 [9(a), 3,7-Bis(dimethylaminosulfonyl)phenoxiodinin-5-ium bromide]
MIC (Staphylococcus aureus): 500 µg/mL
MIC (Bacillus subtilis): 500 µg/mL
MBC [2, 7]: > 125 µg/mL
MIC [2, 9]: > 125 µg/mL
Acid Inhibition (minimum concentration which prevented acid formation) (Streptococcus mutans [3]): 0.2 ppm

O=S(=O)(c1ccc2c(c1)[I+]c1cc(S(=O)(=O)N3CCOCC3)ccc1O2)N1CCOCC1 [8(a), 3,7-Bis(4-morpholinylsulfonyl)phenoxiodinin-5-ium sulfate hydrate]
MBC [2, 7]: > 125 µg/mL
MIC [2, 9]: 62.5 µg/mL
minimal effective concentration (Streptococcus mutans [3]): 8 µg/mL

CCC(=O)c1ccc2c(c1)[I+]c1cc(C(=O)CC)ccc1O2 [2(b)]
Minimum inhibitory concentration, Sa (Staphylococcus aureus): 500 PPM
Minimum inhibitory concentration, Bs (Bacillus subtilis): 500 PPM
MBC (minimum bactericidal concentration) [2, 6]: 31 ppm
MIC [2, 6]: 125 ppm
Acid Inhibition (minimum concentration which prevented acid formation) (Streptococcus mutans [3]): 7.8 ppm

CNS(=O)(=O)c1ccc2c(c1)[I+]c1cc(S(=O)(=O)NC)ccc1O2 [7(b), 3,7-Bis(methylaminosulfonyl)phenoxiodinin-5-ium chloride]
MIC (Salmonella typhosa): 500 µg/mL
MIC (Escherichia coli): 500 µg/mL
MIC (Streptococcus mutans [4]): 500 µg/mL
MIC (Aspergillus niger; read-out: Minimum inhibitory concentration, An): 500 µg/mL

O=C(c1ccc2c(c1)[I+]c1cc(C(=O)C34CC5CC(CC(C5)C3)C4)ccc1O2)C12CC3CC(CC(C3)C1)C2 (single isomer, unassigned) [5(b)]
Minimum inhibitory concentration, Sa (Staphylococcus aureus): 0.78 PPM
Minimum inhibitory concentration, Sm (Streptococcus mutans [4]): 0.78 PPM
MBC (minimum bactericidal concentration) [2, 6]: 1.56 ppm
MIC [2, 6]: 0.78 ppm

CNS(=O)(=O)c1ccc2c(c1)[I+]c1cc(S(=O)(=O)NC)ccc1O2 [7(a), 3,7-Bis(methylaminosulfonyl)phenoxiodinin-5-ium bromide hemihydrate]
MIC (Staphylococcus aureus): 500 µg/mL

CN1CCN(S(=O)(=O)c2ccc3c(c2)[I+]c2cc(S(=O)(=O)N4CCN(C)CC4)ccc2O3)CC1 [4(a), 3,7-bis((4-Methyl-1-piperazinyl)sulfonyl)phenoxiodinin-5-ium bromide, hydrobromide]
MIC (Staphylococcus aureus): 50 µg/mL
MIC (Salmonella typhosa): 500 µg/mL
MIC (Escherichia coli): 500 µg/mL
MIC (Bacillus subtilis): 100 µg/mL
MBC [2, 7]: ≥ 63 µg/mL
MIC [2, 9]: ≥ 63 µg/mL

CCC(=O)c1ccc2c(c1)[I+]c1cc(C(=O)CC)ccc1O2 [2(a), 3,7-Dipropionylphenoxiodinin-5-ium chloride hemihydrate]
Minimum inhibitory concentration, Sa (Staphylococcus aureus; hemihydrate): 10 PPM
MIC (Salmonella typhosa): 50 µg/mL
MIC (Escherichia coli): 50 µg/mL
MIC (Proteus mirabilis): 100 µg/mL
Minimum inhibitory concentration, Bs (Bacillus subtilis; hemihydrate): 50 PPM
MIC ([1]; read-out: Minimum inhibitory concentration, Tm): 500 µg/mL
MBC (minimum bactericidal concentration) [2, 5]: 0.5 ppm
MIC [2, 5]: 2.0 ppm
Acid Inhibition (minimum concentration which prevented acid formation) (Streptococcus mutans [3]; hemihydrate): 0.1 ppm

CC(=O)c1ccc2c(c1)[I+]c1cc(C(C)=O)ccc1O2 [1(b), 3,7-diacetylphenoxiodinin-5-ium bromide monohydrate]
Minimum inhibitory concentration, St (Salmonella typhosa; monohydrate): 10 PPM
Minimum inhibitory concentration, Ec (Escherichia coli; monohydrate): 50 PPM
Minimum inhibitory concentration, Pm (Proteus mirabilis; monohydrate): 500 PPM
Minimum inhibitory concentration, Bs (Bacillus subtilis; monohydrate): 5 PPM
Minimum inhibitory concentration, Tm ([1]; monohydrate): 100 PPM
MBC (minimum bactericidal concentration) [2, 10]: 0.5 ppm
MIC [2, 10]: 0.1 ppm
Acid Inhibition (minimum concentration which prevented acid formation) (Streptococcus mutans [3]; monohydrate): 0.1 ppm

O=C(O)c1ccc2c(c1)[I+]c1cc(C(=O)O)ccc1O2 [6(a)]
MIC (Staphylococcus aureus): 1 µg/mL
MIC (Salmonella typhosa): 10 µg/mL
MIC (Escherichia coli): 5 µg/mL
MIC (Proteus mirabilis): 50 µg/mL
MIC (Bacillus subtilis): 0.5 µg/mL
MIC (Streptococcus mutans [4]): 500 µg/mL
MBC [2, 7]: 3.9 µg/mL
MIC [2, 9]: 3.9 µg/mL
minimal effective concentration (Streptococcus mutans [3]): 3.9 µg/mL

CN(C)S(=O)(=O)c1ccc2c(c1)[I+]c1cc(S(=O)(=O)N(C)C)ccc1O2 [9(b), 3,7-Bis(dimethylaminosulfonyl)phenoxidinin-5-ium chloride]
Minimum inhibitory concentration, Sa (Staphylococcus aureus): 500 PPM
Minimum inhibitory concentration, Bs (Bacillus subtilis): 500 PPM
MBC (minimum bactericidal concentration) [2, 6]: > 125 ppm
MIC [2, 6]: > 125 ppm
Acid Inhibition (minimum concentration which prevented acid formation) (Streptococcus mutans [3]): 0.03 ppm
